The source of these data is patent US10174016B2 (BAYER AKTIENGESELLSCHAFT, priority 2014, dated 2019).

Read-outs that look alike come from different tables or passages of the source. Where only a bound is given, the exact number is not on record here.

One assay deals with human P2X3 receptor (Homo sapiens (Human), UniProt P56373). In words: Intracellular calcium measurement (FLIPR, Fluo-4) of antagonist activity at human P2X3 receptors. The class given is cell-based. To be noted: read-out: hP2X3 IC50. How it is done:
(§1) Intracellular Calcium Measurement to Assess Antagonist Activity at Human P2X3 and Human P2X2/3 Receptors
(§2) A fluorescent imaging plate reader (FLEX/FLIPR station; Molecular Devices) was used to monitor intracellular calcium levels using the calcium-chelating dye Fluo-4 (Molecular Probes). […] Cells expressing purinergic receptors P2X3 (human) or P2X2/3 (human) were plated at a density of 15,000 cells/well in collagen-coated 384-well plates approximately 20 hours before beginning the assay. […] The test compound was added in a volume of 5 μl and allowed to incubate for 30 min at 37° C. The final assay DMSO concentration is 1%. The agonist, α,β-Me-ATP, was added in a volume of 20 μl at a concentration representing the EC80 value. The fluorescence was measured for an interval of 90 sec at 2 sec intervals and analyzed based on the increase in peak relative fluorescence units (RFU) compared to the basal fluorescence. Peak fluorescence was used to determine the response to agonist obtained at each concentration of test compound by the following equation: % Response=100*(RFU(test compound)−RFU(control)/RFU(DMSO)−RFU(control))
(§3) The Examples were tested in triplicates per plate and mean values were plotted in Excel XLFit to determine IC50 values at the human P2X3 and human P2X2/3 receptors, percentage of maximal inhibition and the Hill coefficients.
Background: Calcium assays in cells follow changes in intracellular calcium, usually with a dye or a luminescent sensor.

A further assay concerns the target human P2X2/3 receptor (Homo sapiens (Human), UniProt P56373+Q9UBL9). In words: Intracellular calcium measurement (FLIPR, Fluo-4) of antagonist activity at human P2X2/3 receptors. The class given is cell-based. How it is done:
as §1, §2, §3

The mark [1] stands for this setting: human P2X3, FLIPR calcium assay, agonist α,β-Me-ATP.
[2] abbreviates: human P2X2/3, FLIPR calcium assay, agonist α,β-Me-ATP, read-out: hP2X2/3 IC50.

Chain of human P2X2/3 receptor (P56373 whole entry): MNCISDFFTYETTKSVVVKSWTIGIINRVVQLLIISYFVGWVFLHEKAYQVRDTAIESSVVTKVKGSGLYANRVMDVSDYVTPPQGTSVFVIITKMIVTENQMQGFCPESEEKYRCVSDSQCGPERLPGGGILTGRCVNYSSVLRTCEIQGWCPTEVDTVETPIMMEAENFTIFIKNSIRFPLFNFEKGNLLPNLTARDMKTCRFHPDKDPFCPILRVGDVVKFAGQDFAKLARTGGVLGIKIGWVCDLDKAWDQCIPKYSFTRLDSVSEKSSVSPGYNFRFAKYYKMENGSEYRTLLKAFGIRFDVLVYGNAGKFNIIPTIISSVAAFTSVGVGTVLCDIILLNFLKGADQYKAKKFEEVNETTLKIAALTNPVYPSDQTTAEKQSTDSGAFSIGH
Chain of human P2X2/3 receptor (Q9UBL9 whole entry): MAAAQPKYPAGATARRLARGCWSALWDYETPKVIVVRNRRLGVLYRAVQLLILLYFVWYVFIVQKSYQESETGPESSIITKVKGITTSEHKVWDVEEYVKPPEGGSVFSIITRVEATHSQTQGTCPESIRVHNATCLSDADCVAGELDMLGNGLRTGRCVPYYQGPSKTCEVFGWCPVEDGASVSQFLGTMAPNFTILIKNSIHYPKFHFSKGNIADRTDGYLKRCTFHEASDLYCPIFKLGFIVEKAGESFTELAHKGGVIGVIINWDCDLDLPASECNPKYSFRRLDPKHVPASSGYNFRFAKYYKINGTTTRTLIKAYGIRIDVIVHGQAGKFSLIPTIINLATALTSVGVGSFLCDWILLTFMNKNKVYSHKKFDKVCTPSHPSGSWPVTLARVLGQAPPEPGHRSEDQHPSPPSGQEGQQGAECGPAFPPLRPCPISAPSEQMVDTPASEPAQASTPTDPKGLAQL
Chain of human P2X3 receptor (P56373 whole entry): as the sequence (P56373 whole entry) above

Turning to `CC(C)c1cnc(-c2cc(OC[C@@H]3CCCO3)cc(C(=O)N[C@H](C)c3ccc(C(F)(F)F)nn3)c2)s1` [Example 301, 3-[5-(propan-2-yl)-1,3-thiazol-2-yl]-5-[(2S)-tetrahydrofuran-2-ylmethoxy]-N-{(1R)-1-[6-(trifluoromethyl)pyridazin-3-yl]ethyl}benzamide], the IC50 at human P2X3 receptor (setting [1]) is 0.091 µM; on human P2X2/3 receptor (setting [2]) it was 1710 nM.

In the case of `Cc1cnc(-c2cc(OC3CCNCC3F)cc(C(=O)N[C@H](C)c3cnc(C(F)(F)F)nc3)c2)s1` (stereo partly drawn) [Example 204, 3-{[3-fluoropiperidin-4-yl]oxy}-5-(5-methyl-1,3-thiazol-2-yl)-N-{(1R)-1-[2-(trifluoromethyl)pyrimidin-5-yl]ethyl} benzamide], the IC50 on human P2X3 receptor (setting [1]) came to 0.007 µM; on human P2X2/3 receptor (setting [2]) it was 82 nM.

Consider `Cc1cnc(-c2cc(O[C@H]3CC[C@H]4[C@H]3OCCN4C)cc(C(=O)N[C@H](C)c3cnc(C(F)(F)F)nc3)c2)s1` [Example 219, 3-{[(4aS,7S, 7aR)-4-methylocta-hydro-cyclopenta[b] [1,4]oxazin-7-yl]oxy}-5-(5-methyl-1,3-thiazol-2-yl)-N-{(1R)-1-[2-(trifluoromethyl)pyrimidin-5-yl]ethyl} benzamide], for which the values for the IC50 on human P2X3 receptor (setting [1]) and on human P2X2/3 receptor (setting [2]) were 0.002 µM and 199 nM, respectively.

In the case of `Cc1cnc(-c2cc(OC3CCN(C)CC3)cc(C(=O)N[C@H](C)c3ccc(C(F)(F)F)nn3)c2)s1` [Example 210, 3-[(1-methylpiperidin-4-yl)oxy]-5-(5-methyl-1,3-thiazol-2-yl)-N-{(1R)-1-[6-(trifluoromethyl)pyridazin-3-yl]ethyl} benzamide], the figures for the IC50 on human P2X3 receptor (setting [1]) and at human P2X2/3 receptor (setting [2]) were 0.012 µM and 1010 nM, respectively.

On to `Cc1cnc(CNC(=O)c2cc(OCC3CCOCC3)cc(-c3ncc(C)s3)c2)cn1` [Example 97, N-[(5-Methylpyrazin-2-yl)methyl]-3-(5-methyl-1,3-thiazol-2-yl)-5-(tetrahydro-2H-pyran-4-ylmethoxy)benzamide], for which the IC50 on human P2X3 receptor (setting [1]) stood at 0.015 µM; at human P2X2/3 receptor (setting [2]), 1690 nM.

As for `Cc1cnc(-c2cc(OCC3CC(F)CN3C)cc(C(=O)N[C@H](C)c3cnc(C(F)(F)F)nc3)c2)s1` (stereo partly drawn) [Example 364, 3-{[4-fluoro-1-methylpyrrolidin-2-yl]methoxy}-5-(5-methyl-1,3-thiazol-2-yl)-N-{(1R)-1-[2-(trifluoromethyl)pyrimidin-5-yl]ethyl}benzamide], the IC50 on human P2X3 receptor (setting [1]) is 0.016 µM; at human P2X2/3 receptor (setting [2]) it was 943 nM.

For `CCc1cnc(-c2cc(OC[C@H]3CN(C)CCO3)cc(C(=O)N[C@H](C)c3cnc(C(F)(F)F)nc3)c2)s1` [Example 377, 3-(5-ethyl-1,3-thiazol-2-yl)-5-{[(2R)-4-methylmorpholin-2-yl]methoxy}-N-{(1R)-1-[2-(trifluoromethyl)pyrimidin-5-yl]ethyl}benzamide], the IC50 at human P2X3 receptor (setting [1]) was 0.005 µM; at human P2X2/3 receptor (setting [2]), 273 nM.

For `Cc1ncc([C@@H](C)NC(=O)c2cc(O[C@@H]3CCOC3)cc(-c3ncc(C)s3)c2)cn1` [Example 23, N-[(1R)-1-(2-Methylpyrimidin-5-yl)ethyl]-3-(5-methyl-1,3-thiazol-2-yl)-5-[(3R)-tetrahydrofuran-3-yloxy]benzamide], the figures for the IC50 on human P2X3 receptor and on human P2X2/3 receptor (hP2X2/3 IC50 (nM)) were 0.03 µM and 1110 nM, respectively.

For `Cc1cnc(-c2cc(OC3CCN(C(C)C)CC3)cc(C(=O)N[C@H](C)c3ccc(C(F)(F)F)nn3)c2)s1` [Example 224, 3-(5-Methyl-1,3-thiazol-2-yl)-5-{[1-(propan-2-yl)piperidin-4-yl]oxy}-N-{(1R)-1-[6-(trifluoromethyl)pyridazin-3-yl]ethyl}benzamide], the IC50 at human P2X3 receptor (setting [1]) worked out at 0.009 µM; at human P2X2/3 receptor (setting [2]), 569 nM.

In the case of `Cc1ccc([C@@H](C)NC(=O)c2cc(OC[C@@H]3CCOC3)cc(-c3ncc(C4CCC4)s3)c2)nn1` [Example 261, 3-(5-cyclobutyl-1,3-thiazol-2-yl)-N-[(1R)-1-(6-methylpyridazin-3-yl)ethyl]-5-[(3R)-tetrahydrofuran-3-ylmethoxy]benzamide], the IC50 is 0.045 µM on human P2X3 receptor (setting [1]) and 317 nM on human P2X2/3 receptor (setting [2]).

As for `C#CCOc1cc(C(=O)NCc2cnc(C)cn2)cc(-c2ncc(C)s2)c1` [Example 35, N-[(5-Methylpyrazin-2-yl)methyl]-3-(5-methyl-1,3-thiazol-2-yl)-5-(prop-2-yn-1-yloxy)benzamide], the IC50 was 0.46 µM on human P2X3 receptor (setting [1]) and at least 10000 nM at human P2X2/3 receptor (setting [2]).

In the case of `Cc1ccc([C@@H](C)NC(=O)c2cc(OC[C@H]3CCOC3)cc(-c3ncc(C4CCC4)s3)c2)nn1` [Example 135, 3-(5-Cyclobutyl-1,3-thiazol-2-yl)-N-[(1R)-1-(6-methylpyridazin-3-yl)ethyl]-5-[(3S)-tetrahydrofuran-3-ylmethoxy]benzamide], the IC50 at human P2X3 receptor (setting [1]) was 0.035 µM; on human P2X2/3 receptor (setting [2]), 209 nM.

Consider `C[C@@H](NC(=O)c1cc(OC[C@@H]2CCOC2)cc(-c2ncc(C3CCC3)s2)c1)c1cnc(C(F)(F)F)nc1` [Example 263, 3-(5-cyclobutyl-1,3-thiazol-2-yl)-5-[(3R)-tetrahydrofuran-3-ylmethoxy]-N-{(1R)-1-[2-(trifluoromethyl)pyrimidin-5-yl]ethyl}benzamide], for which the IC50 at human P2X3 receptor (setting [1]) stood at 0.033 µM; at human P2X2/3 receptor (setting [2]), 170 nM.

Take `Cc1ccc(CNC(=O)c2cc(OC[C@@H]3CCCO3)cc(-c3ncc(C)s3)c2)nn1` [Example 54, N-[(6-Methylpyridazin-3-yl)methyl]-3-(5-methyl-1,3-thiazol-2-yl)-5-[(2S)-tetrahydrofuran-2-ylmethoxy]benzamide]: at human P2X2/3 receptor (setting [2]), the IC50 is at least 10000 nM.

In the case of `Cc1cnc(-c2cc(OC3CCOCC3)cc(C(=O)N[C@H](C)c3cnc(C(F)F)nc3)c2)s1` [Example 154, N-{(1R)-1-[2-(difluoromethyl)pyrimidin-5-yl]ethyl}-3-(5-methyl-1,3-thiazol-2-yl)-5-(tetrahydro-2H-pyran-4-yloxy)benzamide], on human P2X2/3 receptor (setting [2]), the IC50 stood at 130 nM.

In the case of `Cc1cnc(-c2cc(OC3CCOCC3)cc(C(=O)N[C@H](C)c3ccc(C(F)(F)F)nn3)c2)s1` [Example 89, 3-(5-Methyl-1,3-thiazol-2-yl)-5-(tetrahydro-2H-pyran-4-yloxy)-N-{(1R)-1-[6-(trifluoromethyl)pyridazin-3-yl]ethyl}benzamide], the IC50 on human P2X2/3 receptor (setting [2]) worked out at 199 nM.

Turning to `Cc1cnc(-c2cc(OCC34CNC(CO3)C4)cc(C(=O)N[C@H](C)c3cnc(C(F)(F)F)nc3)c2)s1` (stereo partly drawn) [Example 407, 3-(5-Methyl-1,3-thiazol-2-yl)-5-[2-oxa-5-azabicyclo[2.2.1]hept-1-ylmethoxy]-N-{(1R)-1-[2-(trifluoromethyl)pyrimidin-5-yl]ethyl}benzamide], the IC50 at human P2X3 receptor (setting [1]) worked out at 0.015 µM.

Regarding `C#CCOc1cc(C(=O)N[C@H](C)c2ccc(C)nn2)cc(-c2ncc(C)s2)c1` [Example 37, N-[(1R)-1-(6-Methylpyridazin-3-yl)ethyl]-3-(5-methyl-1,3-thiazol-2-yl)-5-(prop-2-yn-1-yloxy)benzamide], the IC50 at human P2X2/3 receptor (setting [2]) worked out at 1180 nM.

As for `C#CCOc1cc(C(=O)NCc2ncc(Cl)cc2F)cc(-c2ncc(C)s2)c1` [Example 32, N-[(5-Chloro-3-fluoropyridin-2-yl)methyl]-3-(5-methyl-1,3-thiazol-2-yl)-5-(prop-2-yn-1-yloxy)benzamide], the IC50 on human P2X3 receptor (setting [1]) came out at 0.024 µM.

Consider `Cc1ccc([C@@H](C)NC(=O)c2cc(OC3COC3)cc(-c3ncc(C)s3)c2)cn1` [Example 51, N-[(1R)-1-(6-methylpyridin-3-yl)ethyl]-3-(5-methyl-1,3-thiazol-2-yl)-5-(oxetan-3-yloxy)benzamide], for which the IC50 at human P2X2/3 receptor (setting [2]) stood at 1390 nM.

Consider `Cc1cnc(-c2cc(OC3(C)COC3)cc(C(=O)N[C@H](C)c3cnc(C(F)(F)F)nc3)c2)s1` [Example 156, 3-[(3-methyloxetan-3-yl)oxy]-5-(5-methyl-1,3-thiazol-2-yl)-N-{(1R)-1-[2-(trifluoromethyl)pyrimidin-5-yl]ethyl}benzamide], for which the IC50 at human P2X2/3 receptor (setting [2]) was 163 nM.

`Cc1cnc(-c2cc(OCCn3cncn3)cc(C(=O)N[C@H](C)c3cnc(C(F)(F)F)nc3)c2)s1` [Example 159, 3-(5-methyl-1,3-thiazol-2-yl)-5-[2-(1H-1,2,4-triazol-1-yl)ethoxy]-N-{(1R)-1-[2-(trifluoromethyl)pyrimidin-5-yl]ethyl}benzamide]: the IC50 on human P2X2/3 receptor (setting [2]) is 1230 nM.

In the case of `Cc1cnc(-c2cc(OC[C@H]3COCCO3)cc(C(=O)N[C@H](C)c3ccc(C(F)(F)F)nc3)c2)s1` [Example 177, 3-[(2R)-1,4-dioxan-2-ylmethoxy]-5-(5-methyl-1,3-thiazol-2-yl)-N-{(1R)-1-[6-(trifluoromethyl)pyridin-3-yl]ethyl}benzamide], the IC50 at human P2X2/3 receptor (setting [2]) turned out to be 887 nM.

Consider `Cc1cnc(-c2cc(OC3CCNCC3)cc(C(=O)N[C@H](C)c3cnc(C(F)(F)F)nc3)c2)s1` [Example 138, 3-(5-Methyl-1,3-thiazol-2-yl)-5-(piperidin-4-yloxy)-N-{(1R)-1-[2-(trifluoromethyl)pyrimidin-5-yl]ethyl}benzamide], for which the IC50 at human P2X2/3 receptor (setting [2]) is 559 nM.

With `Cc1cc(Oc2cc(C(=O)N[C@H](C)c3ccc(C(F)(F)F)nn3)cc(-c3ncc(C)s3)c2)ccn1` [Example 105, 3-[(2-Methylpyridin-4-yl)oxy]-5-(5-methyl-1,3-thiazol-2-yl)-N-{(1R)-1-[6-(trifluoromethyl)pyridazin-3-yl]ethyl}benzamide], the IC50 on human P2X2/3 receptor (setting [2]) was 39 nM.
